Calls of active or inactive are those of the source.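 The calls were made as follows: active = compounds lowering Shn3 signal with a fitted half-maximal concentration at most twice the top tested dose; inconclusive = flat curve with 30 to 70% loss, or poor fit; inactive = the rest.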
The molecules below were run against Schnurri-3 (HIVEP3) mRNA (assay: endogenous Schnurri-3 transcript knock-down – Clone20 cells, qPCR, dry powder, orthogonal assay for Schnurri-3 inhibitor project, dose response (AID 720695)). Conditions: Shn3 mRNA qPCR, overnight.
Molecule CCOC(=O)c1ccc(NC(=O)Cn2ncc(Cl)c(Cl)c2=O)cc1 has an AC50 of 11.6 µM.
Work on COc1ccc(NC(=O)c2nc(S(=O)(=O)Cc3cccc(C)c3)ncc2Cl)c(OC)c1 yielded an AC50 of 8.91 µM.
In the case of COc1cc(CN2CCc3ccccc3C2)ccc1O, the AC50 is reported as 6.67 µM.
CC(C)[C@H](NC(=O)OC(C)(C)C)c1nnc(S(=O)(=O)Cc2c(F)cccc2Cl)o1 was tested, and the AC50 was 22.3 µM.
Work on O=C(c1nnsc1S(=O)c1ccc(Cl)cc1)N1CCOCC1 (stereo not drawn) yielded an AC50 of 13.7 µM.
CN(C(=O)COc1ccccc1C(=O)NCCOc1ccccc1)c1ccccc1 gave an AC50 of 26.6 µM.
Work on CCCc1nnc(NC(=O)c2nc(S(=O)(=O)Cc3ccc(C)cc3)ncc2Cl)s1 yielded an AC50 of 28 µM.

Same assay, conditions: overnight, at 35 µM (top of the series)
With CCOC(=O)C1(Cc2ccc(Cl)cc2)CCN(C(C)Cc2ccc(O)c(OC)c2)CC1 (stereo not drawn) the “Shn3 expression, relative signal” value was “inactive”.
COc1ccc(Nc2nc(N3CCCCC3)c3ccccc3n2)cc1 was tested, and the “Shn3 expression, relative signal” value was “inactive”.
For Cc1ccc2cc(CN(CC3CCCO3)C(=O)NC3CCCCC3)c(=O)[nH]c2c1C (stereo not drawn), the “Shn3 expression, relative signal” value was “inactive”.
With CN(C)c1nc(-c2ccccn2)nnc1-c1ccccc1 the “Shn3 expression, relative signal” value was “inactive”.
In the case of CN(CC(=O)Nc1cccc(S(=O)(=O)N2CCOCC2)c1)CC(=O)Nc1ccc(Cl)c(C(F)(F)F)c1, the “Shn3 expression, relative signal” value is reported as “inactive”.
In the case of O=c1c2ccccc2nc2n1C(CSCc1ccc(Cl)cc1Cl)CS2 (stereo not drawn), the “Shn3 expression, relative signal” value is reported as “inactive”.
In the case of O=C1CSc2ccc(C(=O)Nc3cccc(S(=O)(=O)Nc4ccc(Br)cc4)c3)cc2N1, the “Shn3 expression, relative signal” value is reported as “inactive”.
With CC(=O)N1CCN(C(=O)CCc2cc(C(C)(C)C)c(O)c(C(C)(C)C)c2)CC1 the “Shn3 expression, relative signal” value was “inactive”.
For Cc1cc(N2CCCC2=O)cc(C)c1S(=O)(=O)NCCOc1ccc(C(C)(C)C)cc1, the “Shn3 expression, relative signal” value was “inactive”.
CCCOc1ccccc1C1CC(=O)Nc2cc3c(cc21)OCO3 (stereo not drawn) was tested, and the “Shn3 expression, relative signal” value was “inactive”.
For Cc1cc2c(cc(C(=O)N3CCC(C(=O)NC4CCCC4)CC3)n2Cc2c(F)cccc2Cl)o1, the “Shn3 expression, relative signal” value was “inactive”.
COc1ccccc1N1CCN(c2ncc(C(=O)N3CCN(c4cccc(Cl)c4)CC3)c3ccccc23)CC1 was tested, and the “Shn3 expression, relative signal” value was “inactive”.
Nc1nonc1C(=O)NCCNCc1cc(Br)ccc1OCc1ccc(F)cc1 was tested, and the “Shn3 expression, relative signal” value was “inactive”.
With Fc1ccc(-n2nnnc2-c2cnc(-c3cccs3)nc2C(F)(F)F)cc1 the “Shn3 expression, relative signal” value was “inactive”.
CCOC(=O)C1CCN(C(=O)c2ccc(OCC(=O)Nc3cccc(C(F)(F)F)c3)c(OC)c2)CC1 was tested, and the “Shn3 expression, relative signal” value was “inactive”.
COc1ccc(NS(=O)(=O)c2ccc(C(=O)N3CCCCCC3)cc2)cc1 was tested, and the “Shn3 expression, relative signal” value was “inactive”.
In the case of CC(C)(C)NC(=O)CSc1nc2ccc(NC(=O)CSc3nnnn3Cc3ccccc3)cc2s1, the “Shn3 expression, relative signal” value is reported as “inactive”.
In the case of CN(C)S(=O)(=O)c1cccc(NC(=O)c2cccc(S(=O)(=O)N3CCc4ccccc43)c2)c1, the “Shn3 expression, relative signal” value is reported as “inactive”.
CC(=O)Nc1cccc(NC(=O)CSc2ncc(-c3ccc(Cl)cc3)n2Cc2ccco2)c1 was tested, and the “Shn3 expression, relative signal” value was “inactive”.
COc1ccc2c(c1)c(CC(=O)Nc1cc(C)ccc1C)c(C)n2C(=O)c1ccc(Cl)cc1 was tested, and the “Shn3 expression, relative signal” value was “inactive”.
COc1cc2ncnc(N[C@H](C)c3ccccc3)c2cc1OC was tested, and the “Shn3 expression, relative signal” value was “inactive”.

Reference: PubChem BioAssay AID720695 (Broad Institute, 2013)
